Laboratory results as given in paper PMC11725581, “Developing novel Lin28 inhibitors by computer aided drug design” (Cell Death Discovery, 2025).

Key:
Assay type in all cases: cell-based
VOA1066 cells = assay: Cell proliferation (Incucyte), VOA1066
From the text: (§1) To further evaluate whether the suppressive effects of Ln268 are specific to Lin28-positive cancer cells, we compared cell growth rates of DuNE (Lin28b-positive line) and Du145 (Lin28b-negative line), both of which are Lin28a-negative. DuNE has the same genomic background with Du145 except for the transduction of the SRRM4 gene. […] Furthermore, Ln268 had no impact on the cell growth of DuNE(KO) cells, in which the Lin28b gene was knocked out by CRISPR (Fig. 5C). […] We also tested several ovarian and endometrial cancer cell lines with different Lin28a and Lin28b expression profiles (Fig. 5E).

[1] = system: Du145 (Lin28b-negative line); assay: Cell proliferation (Incucyte), Du145 cells
From the text: as §1

DuNE cells [2] = assay: Colony formation assay, DuNE cells; conditions: 14 days, vs vehicle (~50 colonies)
From the text: CSCs have characteristic tumorigenic, self-renewal, and differentiation properties. The self-renewal ability is hijacked by CSCs that makes them both tumorigenic and capable of sustaining long-term tumor growth, which can be evaluated by 3D spheroid and colony formation assays. We established a DuNE spheroid model in which DuNE cells formed 3D spheroids in 96-well plates (Figure S3). By integrating this 3D culture with the Incucyte live-cell imaging system, we quantified the sizes of the spheroid growth over 0–6 days to generate a spheroid growth curve. Using this model system, we treated the DuNE spheroids with increasing doses (0–100 μM) of C1632, Ln15, and Ln268 for 0–6 days. […] In addition, classic colony formation assays were used to measure the stemness in the DuNE model. Colony formation counts, which were ~50 under vehicle treatment after 14 days, decreased by 22% in C1632-treated plates, and by 75% and 96% in the Ln15 and Ln268 treated plates, respectively (Fig. 4D).
In the colony formation assays, cancer cells were seeded in 0.7% soft agar in a 6-well plate, with a 1% soft agar bottom base coating. Cells were allowed to grow for 14 days to form colonies. Colonies were stained with crystal violet and imaged by stitching 5X field images together to capture the entire well (Zeiss light microscope [Carl Zeiss]). Colony numbers were counted according to their diameters (100-300um or >300um). Three independent biological replicates were performed for all the assays.

HEC50 cells = assay: Cell proliferation (Incucyte), HEC50; conditions: Lin28a/Lin28b-negative
From the text: as §1

Kuramochi cells = assay: Cell proliferation (Incucyte), Kuramochi; conditions: Lin28a/Lin28b-positive
From the text: as §1

DuNE cells [3] = assay: Cell cycle analysis by FACS, DuNE cells; conditions: 0-20 μM, 144 h
From the text: To further compare the potency of Ln268 with C1632 and Ln15 in suppressing DuNE cell growth, we also measured cell growth rates under […] conditions (Fig. 4E). […] In addition, we used FACS assays to confirm that Ln268-mediated cell growth inhibition was due to its effects on blocking cancer cell cycling from the G1 phase towards the S and M phases (Fig. 4F). […] In summary, we confirmed that Ln268 is a potent Lin28 inhibitor that blocks the CSC phenotype of cancer cells, suppresses formation of 3D colonies, and inhibits cancer cell proliferation.

## O=c1[nH]c(Nc2ccc(F)cc2O)cs1 [Ln268]
VOA1066 cells; Lin28a/Lin28b-positive
  effect on growth of VOA1066 cells: suppressed the growth
VOA1066 cells; cells express both Lin28a and Lin28b at relatively high levels
  IC50: 0.4 µM
[1]
  effect on Du145 cell growth and cell morphology: no impact
DuNE cells [2]
  decrease of colony formation counts: 96%
HEC50 cells
  effect on growth of HEC50 cells: no or minimal impacts
Kuramochi cells
  effect on growth of Kuramochi cells: suppressed the growth
DuNE cells [3]
  cell cycle effect (FACS): arrested in G2/M in a dose-dependent manner
